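All cell lines were grown in 96-well plates and treated with compound for 48 hours. Here, GI50 denotes the concentration required for 50% inhibition of growth.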 Active and inactive are the calls of the source. No stated cut-off is given here; in the data, active = GI50 up to about 1.1 µM and inactive = higher. Square brackets hold non-standard residues; d marks the D form. Peptide text beside a SMILES is read from it. * marks the point of attachment. Boc = CC(C)(C)OC(=O)*; Lac = C[CH](O)C(=O)O; OBn = c1ccc(CO*)cc1
How the values were obtained:
Assay in all cases: NCI anticancer screen, dose series, 48 h
HL-60 = system: HL-60
ACHN = system: ACHN
OVCAR-5 = system: OVCAR-5
K562 = system: K562
SNB-19 = system: SNB-19
MOLT-4 = system: MOLT-4
IGROV-1 = system: IGROV-1
SF-268 = system: SF-268
OVCAR-4 = system: OVCAR-4
CAKI-1 = system: CAKI-1
M14 = system: M14
RPMI-8226 = system: RPMI-8226
UACC-257 = system: UACC-257
SR = system: SR
SK-OV-3 = system: SK-OV-3
SNB-75 = system: SNB-75
SK-MEL-28 = system: SK-MEL-28
COLO 205 = system: COLO 205
HT-29 = system: HT-29
A549 = system: A549

O=C1Nc2ccc(Cl)cc2/C1=C\c1c(Cl)nc2sccn12
GI50 (HL-60): 4.07 µM (inactive) | GI50 (ACHN): > 100 µM (inactive) | GI50 (OVCAR-5): 14.7 µM (inactive) | GI50 (K562): 0.156 µM (active) | GI50 (SNB-19): > 100 µM (inactive) | GI50 (MOLT-4): 2.59 µM (inactive) | GI50 (IGROV-1): 8.51 µM (inactive) | GI50 (SF-268): > 100 µM (inactive) | GI50 (OVCAR-4): > 100 µM (inactive) | GI50 (CAKI-1): 18.7 µM (inactive) | GI50 (M14): 34.2 µM (inactive) | GI50 (RPMI-8226): 0.0514 µM (active) | GI50 (UACC-257): > 100 µM (inactive) | GI50 (SR): 0.338 µM (active) | GI50 (SK-OV-3): 36.8 µM (inactive) | GI50 (SNB-75): > 100 µM (inactive) | GI50 (SK-MEL-28): > 100 µM (inactive)

C[C@H]1S[C@@H](c2ccc(Cl)cc2Cl)N(NC(=O)c2ccncc2)C1=O
GI50 (HL-60): 98.4 µM (inactive) | GI50 (OVCAR-5): 95.9 µM (inactive) | GI50 (K562): 28.1 µM (inactive) | GI50 (SNB-19): 62.4 µM (inactive) | GI50 (MOLT-4): 18.4 µM (inactive) | GI50 (IGROV-1): > 100 µM (inactive) | GI50 (OVCAR-4): > 100 µM (inactive) | GI50 (CAKI-1): 56.2 µM (inactive) | GI50 (COLO 205): 70.6 µM (inactive) | GI50 (M14): 61.8 µM (inactive) | GI50 (RPMI-8226): 40.2 µM (inactive) | GI50 (SR): 79.4 µM (inactive) | GI50 (SK-OV-3): > 100 µM (inactive) | GI50 (HT-29): > 100 µM (inactive) | GI50 (SNB-75): 80.5 µM (inactive) | GI50 (SK-MEL-28): 45.2 µM (inactive)

Nc1ccccc1C(=O)N/N=C1\C(=O)Nc2ccccc21
GI50 (ACHN): 56.4 µM (inactive) | GI50 (OVCAR-5): > 100 µM (inactive) | GI50 (K562): > 100 µM (inactive) | GI50 (SNB-19): 35.4 µM (inactive) | GI50 (MOLT-4): > 100 µM (inactive) | GI50 (A549): > 100 µM (inactive) | GI50 (IGROV-1): 64 µM (inactive) | GI50 (SF-268): 88.7 µM (inactive) | GI50 (OVCAR-4): > 100 µM (inactive) | GI50 (CAKI-1): > 100 µM (inactive) | GI50 (COLO 205): > 100 µM (inactive) | GI50 (M14): > 100 µM (inactive) | GI50 (UACC-257): > 100 µM (inactive) | GI50 (SR): > 100 µM (inactive) | GI50 (SK-OV-3): > 100 µM (inactive) | GI50 (HT-29): > 100 µM (inactive) | GI50 (SNB-75): 23.9 µM (inactive)

CC/C=C\C/C=C\C/C=C\CCCCCCCC(=O)OC [METHYL LINOLENATE]
GI50 (HL-60): 22.8 µM (inactive) | GI50 (OVCAR-5): > 100 µM (inactive) | GI50 (K562): 45.5 µM (inactive) | GI50 (SNB-19): > 100 µM (inactive) | GI50 (MOLT-4): 87.5 µM (inactive) | GI50 (A549): > 100 µM (inactive) | GI50 (IGROV-1): > 100 µM (inactive) | GI50 (SF-268): > 100 µM (inactive) | GI50 (OVCAR-4): > 100 µM (inactive) | GI50 (CAKI-1): > 100 µM (inactive) | GI50 (COLO 205): 61.1 µM (inactive) | GI50 (RPMI-8226): 99.3 µM (inactive) | GI50 (UACC-257): > 100 µM (inactive) | GI50 (SK-OV-3): > 100 µM (inactive) | GI50 (HT-29): > 100 µM (inactive) | GI50 (SNB-75): 67.6 µM (inactive) | GI50 (SK-MEL-28): > 100 µM (inactive)

CC(OC(=O)C(Cc1ccccc1)NC(=O)C(Cc1ccccc1)NC(=O)OC(C)(C)C)C(=O)OCc1ccccc1 (stereo not drawn) (Boc-Phe-Phe-[Lac]-OBn; configuration not given here)
GI50 (HL-60): > 100 µM (inactive) | GI50 (OVCAR-5): > 100 µM (inactive) | GI50 (K562): > 100 µM (inactive) | GI50 (SNB-19): > 100 µM (inactive) | GI50 (MOLT-4): > 100 µM (inactive) | GI50 (IGROV-1): > 100 µM (inactive) | GI50 (CAKI-1): > 100 µM (inactive) | GI50 (COLO 205): > 100 µM (inactive) | GI50 (M14): 87.1 µM (inactive) | GI50 (RPMI-8226): 94 µM (inactive) | GI50 (SR): > 100 µM (inactive) | GI50 (SK-OV-3): > 100 µM (inactive) | GI50 (SNB-75): 93.1 µM (inactive) | GI50 (SK-MEL-28): > 100 µM (inactive)

Cc1n[nH]c(CC#N)n1
GI50 (ACHN): > 100 µM (inactive) | GI50 (OVCAR-5): > 100 µM (inactive) | GI50 (K562): > 100 µM (inactive) | GI50 (SNB-19): > 100 µM (inactive) | GI50 (MOLT-4): > 100 µM (inactive) | GI50 (A549): > 100 µM (inactive) | GI50 (IGROV-1): > 100 µM (inactive) | GI50 (SF-268): > 100 µM (inactive) | GI50 (OVCAR-4): > 100 µM (inactive) | GI50 (COLO 205): > 100 µM (inactive) | GI50 (M14): > 100 µM (inactive) | GI50 (RPMI-8226): > 100 µM (inactive) | GI50 (UACC-257): > 100 µM (inactive) | GI50 (SR): > 100 µM (inactive) | GI50 (SK-OV-3): > 100 µM (inactive) | GI50 (HT-29): > 100 µM (inactive) | GI50 (SNB-75): > 100 µM (inactive)

Cn1c(=O)c(C#N)c(O)c2cc3ccccc3nc21
GI50 (HL-60): > 100 µM (inactive) | GI50 (ACHN): > 100 µM (inactive) | GI50 (K562): > 100 µM (inactive) | GI50 (SNB-19): > 100 µM (inactive) | GI50 (MOLT-4): > 100 µM (inactive) | GI50 (A549): > 100 µM (inactive) | GI50 (IGROV-1): > 100 µM (inactive) | GI50 (SF-268): > 100 µM (inactive) | GI50 (OVCAR-4): > 100 µM (inactive) | GI50 (CAKI-1): > 100 µM (inactive) | GI50 (COLO 205): > 100 µM (inactive) | GI50 (M14): > 100 µM (inactive) | GI50 (RPMI-8226): > 100 µM (inactive) | GI50 (UACC-257): > 100 µM (inactive) | GI50 (SR): > 100 µM (inactive) | GI50 (SK-OV-3): > 100 µM (inactive) | GI50 (SNB-75): 44.1 µM (inactive) | GI50 (SK-MEL-28): > 100 µM (inactive)

OC1CCOc2ccccc21 (stereo unspecified)
GI50 (HL-60): > 100 µM (inactive) | GI50 (ACHN): > 100 µM (inactive) | GI50 (OVCAR-5): > 100 µM (inactive) | GI50 (K562): > 100 µM (inactive) | GI50 (SNB-19): > 100 µM (inactive) | GI50 (MOLT-4): > 100 µM (inactive) | GI50 (A549): > 100 µM (inactive) | GI50 (IGROV-1): > 100 µM (inactive) | GI50 (SF-268): > 100 µM (inactive) | GI50 (OVCAR-4): > 100 µM (inactive) | GI50 (CAKI-1): > 100 µM (inactive) | GI50 (COLO 205): > 100 µM (inactive) | GI50 (M14): > 100 µM (inactive) | GI50 (RPMI-8226): > 100 µM (inactive) | GI50 (SR): > 100 µM (inactive) | GI50 (SK-OV-3): > 100 µM (inactive) | GI50 (HT-29): > 100 µM (inactive) | GI50 (SK-MEL-28): > 100 µM (inactive)

O=C1CCC(NC(=O)Cc2ccc(O)cc2)C(=O)N1 (stereo unspecified)
GI50 (ACHN): > 2500 µM (inactive) | GI50 (OVCAR-5): > 2500 µM (inactive) | GI50 (SNB-19): > 2500 µM (inactive) | GI50 (A549): > 2500 µM (inactive) | GI50 (IGROV-1): > 2500 µM (inactive) | GI50 (SF-268): > 2500 µM (inactive) | GI50 (OVCAR-4): > 2500 µM (inactive) | GI50 (CAKI-1): > 2500 µM (inactive) | GI50 (COLO 205): > 2500 µM (inactive) | GI50 (M14): > 2500 µM (inactive) | GI50 (UACC-257): > 2500 µM (inactive) | GI50 (SK-OV-3): 1020 µM (inactive) | GI50 (HT-29): > 2500 µM (inactive) | GI50 (SNB-75): 589 µM (inactive) | GI50 (SK-MEL-28): > 2500 µM (inactive)

COc1ccc(C(=O)NNC(=O)c2nsc3ccccc23)cc1
GI50 (HL-60): 23.3 µM (inactive) | GI50 (OVCAR-5): > 100 µM (inactive) | GI50 (K562): 39.4 µM (inactive) | GI50 (SNB-19): > 100 µM (inactive) | GI50 (MOLT-4): 34 µM (inactive) | GI50 (A549): > 100 µM (inactive) | GI50 (IGROV-1): > 100 µM (inactive) | GI50 (SF-268): > 100 µM (inactive) | GI50 (OVCAR-4): 68.9 µM (inactive) | GI50 (COLO 205): > 100 µM (inactive) | GI50 (M14): 85.7 µM (inactive) | GI50 (RPMI-8226): 52.5 µM (inactive) | GI50 (UACC-257): > 100 µM (inactive) | GI50 (HT-29): 61.7 µM (inactive) | GI50 (SK-MEL-28): > 100 µM (inactive)

COP(=O)(OC)C(N)Cc1c[nH]c2ccccc12 (stereo unspecified)
GI50 (ACHN): > 100 µM (inactive) | GI50 (OVCAR-5): > 100 µM (inactive) | GI50 (K562): > 100 µM (inactive) | GI50 (SNB-19): > 100 µM (inactive) | GI50 (MOLT-4): > 100 µM (inactive) | GI50 (A549): > 100 µM (inactive) | GI50 (IGROV-1): > 100 µM (inactive) | GI50 (OVCAR-4): > 100 µM (inactive) | GI50 (CAKI-1): > 100 µM (inactive) | GI50 (COLO 205): > 100 µM (inactive) | GI50 (M14): > 100 µM (inactive) | GI50 (RPMI-8226): > 100 µM (inactive) | GI50 (UACC-257): > 100 µM (inactive) | GI50 (SK-OV-3): > 100 µM (inactive) | GI50 (HT-29): > 100 µM (inactive) | GI50 (SNB-75): > 100 µM (inactive) | GI50 (SK-MEL-28): > 100 µM (inactive)

Reference: ChEMBL document CHEMBL1201862, “PubChem BioAssay data set” (2004)
